Source: patent publication US20240182445A1 (ONO PHARMACEUTICAL CO., LTD., priority 2019, published 2024)

Molecular target: T1, human TREK-1 (Homo sapiens, UniProt O95069)
T1 construct: expressed in transfected cells
T1 sequence (O95069 1-426): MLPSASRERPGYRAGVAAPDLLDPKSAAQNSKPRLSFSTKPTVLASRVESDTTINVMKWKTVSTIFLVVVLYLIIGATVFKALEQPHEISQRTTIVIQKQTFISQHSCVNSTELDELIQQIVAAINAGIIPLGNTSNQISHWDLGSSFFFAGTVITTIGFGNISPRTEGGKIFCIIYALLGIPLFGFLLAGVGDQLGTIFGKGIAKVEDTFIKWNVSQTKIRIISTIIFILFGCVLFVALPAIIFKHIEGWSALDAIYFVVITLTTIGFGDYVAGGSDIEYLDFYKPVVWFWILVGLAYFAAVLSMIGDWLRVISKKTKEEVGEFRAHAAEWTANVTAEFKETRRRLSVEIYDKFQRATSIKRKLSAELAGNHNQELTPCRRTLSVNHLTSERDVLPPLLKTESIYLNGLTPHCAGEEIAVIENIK
Test: TREK-1 Thallium (Tl+) flux assay, Method 1
Format: cell-based
Settings: TREK-1 Thallium (Tl+) flux assay
In short: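 Readout: Thallos fluorescence ratio, taken 25 s post-thallium relative to the pre-thallium baseline average, then converted to % inhibition. Cells were CHO-K1 stably expressing human TREK-1, dye-loaded and exposed to test compound (vehicle 0.3% DMSO) for 10 min prior to thallium stimulation.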

[1] = no *^12 (Method 2) mark on these rows

Row | IC50 [1] [nM] | IC50 (Method 1) [nM] | Compound
1 | 1100 | – | CCN1CC(n2ncc(Cl)c2C(=O)Nc2ncc(C#Cc3ccccc3)cc2F)C1 [Compound 373, 4-chloro-1-(1-ethylazetidin-3-yl)-N-(3-fluoro-5-(phenylethynyl)pyridin-2-yl)-1H-pyrazole-5-carboxamide hydrate]
2 | 1130 | – | Cc1ncc(Cn2ncc(Cl)c2C(=O)Nc2ncc(C#Cc3ccccc3)cc2C)s1 [Compound 374, 4-chloro-N-(3-methyl-5-(phenylethynyl)pyridin-2-yl)-1-((2-methylthiazol-5-yl)methyl)-1H-pyrazole-5-carboxamide]
3 | 1150 | – | Cc1cc(C#Cc2ccccc2)cnc1NC(=O)c1c(Cl)ccn1CC1CCOCC1 [Compound 375, 3-chloro-N-(3-methyl-5-(phenylethynyl)pyridin-2-yl)-1-((tetrahydro-2H-pyran-4-yl)methyl)-1H-pyrrole-2-carboxamide]
4 | 1540 | – | O=C(Nc1ncc(C#Cc2ccccc2)cc1Cl)c1c(Cl)cnn1[C@@H]1CCOC1 [Compound 376, (R)-4-chloro-N-(3-chloro-5-(phenylethynyl)pyridin-2-yl)-1-(tetrahydrofuran-3-yl)-1H-pyrazole-5-carboxamide]
5 | 1710 | – | CCN1CC(n2ncc(Cl)c2C(=O)Nc2ncc(C#Cc3ccccc3)cc2C)C1 [Compound 377, 4-chloro-1-(1-ethylazetidin-3-yl)-N-(3-methyl-5-(phenylethynyl)pyridin-2-yl)-1H-pyrazole-5-carboxamide]
6 | 5680 | – | CC(=O)N1CCC(n2ncc(Cl)c2C(=O)Nc2cnc(C#Cc3ccccc3)c(F)c2)CC1 [Compound 378, 1-(1-acetylpiperidin-4-yl)-4-chloro-N-(5-fluoro-6-(phenylethynyl)pyridin-3-yl)-1H-pyrazole-5-carboxamide]
7 | 320 | – | Cc1cc(-c2cnn(-c3ccc(F)cc3)c2)cnc1NC(=O)c1c(Cl)cnn1C[C@@H]1CCOC1 [Compound 379, (S)-4-chloro-N-(5-(1-(4-fluorophenyl)-1H-pyrazol-4-yl)-3-methylpyridin-2-yl)-1-((tetrahydrofuran-3-yl)methyl)-1H-pyrazole-5-carboxamide]
8 | 380 | – | Cc1cc(OCc2ccccc2)ccc1NC(=O)c1c(Cl)cnn1[C@H]1CC[C@@H](NC(=O)C2COCCO2)CC1 (stereo partly drawn) [Compound 380, 1-(cis-4-(1,4-dioxane-2-carboxamido)cyclohexyl)-N-(4-(benzyloxy)-2-methylphenyl)-4-chloro-1H-pyrazole-5-carboxamide]
9 | 600 | – | Cc1cc(-c2cnn(-c3ccc(F)cc3)c2)cnc1NC(=O)c1c(Cl)cnn1C1CCOCC1 [Compound 381, 4-chloro-N-(5-(1-(4-fluorophenyl)-1H-pyrazol-4-yl)-3-methylpyridin-2-yl)-1-(tetrahydro-2H-pyran-4-yl)-1H-pyrazole-5-carboxamide]
10 | 610 | – | Cc1cc(OCc2ccccc2)ccc1NC(=O)c1c(Cl)cnn1[C@H]1CC[C@@H](NC(=O)CC(C)C)CC1 [Compound 382, N-(4-(benzyloxy)-2-methylphenyl)-4-chloro-1-(cis-4-(3-methylbutanamido)cyclohexyl)-1H-pyrazole-5-carboxamide]
11 | 680 | – | COc1ncc(-c2cnc(NC(=O)c3c(Cl)cnn3C3CCN(C(=O)OC(C)(C)C)CC3)c(C)c2)cc1F [Compound 383, tert-butyl 4-(4-chloro-5-((5′-fluoro-6′-methoxy-5-methyl-[3,3′-bipyridin]-6-yl)carbamoyl)-1H-pyrazol-1-yl)piperidine-1-carboxylate]
12 | 740 | – | COc1ccc(-c2cnc(NC(=O)c3c(Cl)cnn3C3CCN(C(=O)OC(C)(C)C)CC3)c(C)c2)cc1OC [Compound 384, tert-butyl 4-(4-chloro-5-((5-(3,4-dimethoxyphenyl)-3-methylpyridin-2-yl)carbamoyl)-1H-pyrazol-1-yl)piperidine-1-carboxylate]
13 | 830 | – | Cc1cc(OCc2ccccc2)ccc1NC(=O)c1c(Cl)cnn1[C@H]1CC[C@@H](NC(=O)C2CC2)CC1 [Compound 385, N-(4-(benzyloxy)-2-methylphenyl)-4-chloro-1-(cis-4-(cyclopropanecarboxamido)cyclohexyl)-1H-pyrazole-5-carboxamide]
14 | 890 | – | COc1c(F)cc(-c2cnc(NC(=O)c3c(Cl)cnn3C3CCN(C(=O)OC(C)(C)C)CC3)c(C)c2)cc1F [Compound 386, tert-butyl 4-(4-chloro-5-((5-(3,5-difluoro-4-methoxyphenyl)-3-methylpyridin-2-yl)carbamoyl)-1H-pyrazol-1-yl)piperidine-1-carboxylate]
15 | 900 | – | Cc1cc(-c2cnn(-c3ccc(F)cc3)c2)cnc1NC(=O)c1c(Cl)cnn1C[C@H]1CCOC1 [Compound 387, (R)-4-chloro-N-(5-(1-(4-fluorophenyl)-1H-pyrazol-4-yl)-3-methylpyridin-2-yl)-1-((tetrahydrofuran-3-yl)methyl)-1H-pyrazole-5-carboxamide]
16 | 1050 | – | CC(=O)N1CCC(n2ncc(Cl)c2C(=O)Nc2ccc(OCc3ccccc3)cc2C)CC1 [Compound 388, 1-(1-acetylpiperidin-4-yl)-N-(4-(benzyloxy)-2-methylphenyl)-4-chloro-1H-pyrazole-5-carboxamide]
17 | 1210 | – | Cc1cc(-c2cnn(-c3ccc(F)cc3)c2)cnc1NC(=O)c1c(Cl)cnn1CC1(C#N)CC1 [Compound 389, 4-chloro-1-((1-cyanocyclopropyl)methyl)-N-(5-(1-(4-fluorophenyl)-1H-pyrazol-4-yl)-3-methylpyridin-2-yl)-1H-pyrazole-5-carboxamide]
18 | 1210 | – | COc1ccc(-c2cnc(NC(=O)c3c(Cl)cnn3C3CCN(C(=O)OC(C)(C)C)CC3)c(C)c2)cc1C(C)C [Compound 390, tert-butyl 4-(4-chloro-5-((5-(3-isopropyl-4-methoxyphenyl)-3-methylpyridin-2-yl)carbamoyl)-1H-pyrazol-1-yl)piperidine-1-carboxylate]
19 | 1250 | – | Cc1cc(OCc2ccccc2)ccc1NC(=O)c1c(Cl)cnn1C1CCN(C(=O)C2COCCO2)CC1 (centres unmarked) [Compound 391, 1-(1-(1,4-dioxane-2-carbonyl)piperidin-4-yl)-N-(4-(benzyloxy)-2-methylphenyl)-4-chloro-1H-pyrazole-5-carboxamide]
20 | – | 1260 | CCC(=O)N[C@H]1CC[C@@H](n2ncc(Cl)c2C(=O)Nc2ccc(OCc3ccccc3)cc2C)CC1 [Compound 392, N-(4-(benzyloxy)-2-methylphenyl)-4-chloro-1-(cis-4-propionamidocyclohexyl)-1H-pyrazole-5-carboxamide]
21 | – | 1270 | CC(=O)N1CCC(n2ncc(Cl)c2C(=O)Nc2ncc(OCc3ccccc3)cc2C)CC1 [Compound 393, 1-(1-acetylpiperidin-4-yl)-N-(5-(benzyloxy)-3-methylpyridin-2-yl)-4-chloro-1H-pyrazole-5-carboxamide]
22 | – | 1340 | Cc1cc(-c2cnn(-c3ccc(F)cc3)c2)cnc1NC(=O)c1c(Cl)cnn1C1CC(C#N)C1 (centres unmarked) [Compound 394, 4-chloro-1-(3-cyanocyclobutyl)-N-(5-(1-(4-fluorophenyl)-1H-pyrazol-4-yl)-3-methylpyridin-2-yl)-1H-pyrazole-5-carboxamide]
23 | – | 1420 | Cc1cc(-c2cnn(-c3ccc(F)cc3)c2)cnc1NC(=O)c1c(Cl)cnn1[C@H]1CCOC1 [Compound 395, (S)-4-chloro-N-(5-(1-(4-fluorophenyl)-1H-pyrazol-4-yl)-3-methylpyridin-2-yl)-1-(tetrahydrofuran-3-yl)-1H-pyrazole-5-carboxamide]
24 | – | 1600 | Cc1cc(-c2ccc(C(F)(F)F)nc2)cnc1NC(=O)c1c(Cl)cnn1C1CCN(C(=O)OC(C)(C)C)CC1 [Compound 396, tert-butyl 4-(4-chloro-5-((5-methyl-6′-(trifluoromethyl)-[3,3′-bipyridin]-6-yl)carbamoyl)-1H-pyrazol-1-yl)piperidine-1-carboxylate]
25 | – | 1680 | CCC(=O)N1CCC(n2ncc(Cl)c2C(=O)Nc2ccc(OCc3ccccc3)cc2C)CC1 [Compound 397, N-(4-(benzyloxy)-2-methylphenyl)-4-chloro-1-(1-propionylpiperidin-4-yl)-1H-pyrazole-5-carboxamide]
26 | – | 1740 | Cc1cc(OCc2ccccc2)ccc1NC(=O)c1c(Cl)cnn1C1CC2(C1)CN(C(=O)C(C)C)C2 [Compound 398, N-(4-(benzyloxy)-2-methylphenyl)-4-chloro-1-(2-isobutyryl-2-azaspiro[3.3]heptan-6-yl)-1H-pyrazole-5-carboxamide]
27 | – | 1760 | CC(=O)N[C@H]1CC[C@@H](n2ncc(Cl)c2C(=O)Nc2ccc(OCc3ccccc3)cc2C)CC1 [Compound 399, 1-(cis-4-acetamidocyclohexyl)-N-(4-(benzyloxy)-2-methylphenyl)-4-chloro-1H-pyrazole-5-carboxamide]
28 | – | 1780 | Cc1cc(OCc2ccccc2)ccc1NC(=O)c1c(Cl)cnn1C1CCN(C(=O)C2CC2)CC1 [Compound 400, N-(4-(benzyloxy)-2-methylphenyl)-4-chloro-1-(1-(cyclopropanecarbonyl)piperidin-4-yl)-1H-pyrazole-5-carboxamide]
29 | – | 1780 | Cc1cc(OCc2ccccc2)ccc1NC(=O)c1c(Cl)cnn1C1CCN(C(=O)CC(C)C)CC1 [Compound 401, N-(4-(benzyloxy)-2-methylphenyl)-4-chloro-1-(1-(3-methylbutanoyl)piperidin-4-yl)-1H-pyrazole-5-carboxamide]
